{"source": "patent US20250049776A1", "about": "“AUTOPHAGY INDUCING COMPOUNDS AND USES THEREOF, IN PARTICULAR FOR A SYSTEMIC TREATMENT OF DISEASES AND CONDITIONS” (Samsara Therapeutics Inc., priority 2021, published 2025)", "test_system": "dopaminergic Tyrosine hydroxylase (TH)-positive neurons injured with MPTP", "experiment": "Cellular model of Parkinson's disease (MPTP/MPP+ injury of primary mesencephalic neurons)", "format": "cell-based, Rat", "settings": "concentrations of 500 μM and 1 μM", "source_text": "This model (run by Neuro-Sys SAS, France) is based on a primary culture of dopaminergic Tyrosine hydroxylase (TH)-positive neurons injured with the dopaminergic neurons-specific toxin (DA-toxin) 1-methyl-4-phenyl-1,2,3,6 tetrahydropyridine (MPTP, a prodrug of MPP*) (Dauer and Przedborski, 2003). Any substances reducing DA-toxin neurotoxicity may be useful as a new therapeutic agent for the treatment or prevention of PD.\nPrimary culture of mesencephalic neurons: Rat dopaminergic neurons were cultured as described by Visanji et al., 2008 and Callizot et al., 2019. Briefly, pregnant female rat (Wistar) of 15 days of gestation were killed using a deep anesthesia with CO2 chamber and a cervical dislocation. The midbrains obtained from 15-day-old rat embryos (Janvier, France) were dissected under a microscope. The embryonic midbrains will be removed and placed in ice-cold medium of Leibovitz (L15) containing 2% of Penicillin-Streptomycin (PS) and 1% of bovine serum albumin (BSA). The ventral portion of the mesencephalic flexure, a region of the developing brain rich in dopaminergic neurons, was used for the cell preparations.\nThe midbrains were dissociated by trypsinisation for 20 min at 37° C. (solution at a final concentration of 0.05% trypsin and 0.02% EDTA). The reaction was stopped by the addition of Dulbecco's modified Eagle's medium (DMEM) containing DNAase I grade II (0.5 mg/mL) and 10% of foetal calf serum (FCS). Cells were then mechanically dissociated by 3 passages through a 10 ml pipette. Cells were then centrifuged at 180×g for 10 min at +4° C. on a layer of BSA (3.5%) in L15 medium. The supernatant was discarded and the cell pellets re-suspended in a defined culture medium consisting of Neurobasal supplemented with B27 (2%), L-glutamine (2 mM) and 2% of PS solution and 10 ng/mL of Brain-derived neurotrophic factor (BDNF) and 1 ng/mL of Glial-Derived Neurotrophic Factor (GDNF). Viable cells were counted in a Neubauer cytometer using the trypan blue exclusion test. The cells were seeded at a density of 40,000 cells/well in 96 well-plates (pre-coated with poly-L-lysine) and maintained in a humidified incubator at 37° C. in 5% CO2/95% air atmosphere. Half of the medium was changed every 2 days with fresh medium. The wells of first and last lines and columns […] (to avoid any edge effect) and were be filled with sterile water.\nTest compounds and MPTP: • i) Pre-incubation. On day 6 of culture, the test compounds were dissolved in PBS or DMSO and incubated for 1 hour before the MPTP exposure. • ii) Injury. One hour after the application of test compound, MPTP was added to a final concentration of 4 μM, diluted in control medium still in presence of compounds/inhibitors for 48h. Test compounds were tested on one culture in 96-well plate (n=6 culture wells per condition).\nImmunostaining: TH and α-Synuclein. 48 Hours after intoxication, the cell culture supernatant was removed, and the cells were fixed by a solution of 4% paraformaldehyde in PBS, pH=7.3 for 20 min at room temperature. The cells were washed twice in PBS, and then permeabilized. Non-specific sites were blocked with a solution of PBS containing 0.1% of saponin and 1% FCS for 15 min at room temperature. The cultures were incubated with: (a) monoclonal anti-Tyrosine Hydroxylase (TH) antibody produced in mouse at dilution of 1/10000 in PBS containing 1% FCS, 0.1% saponin, for 2 hours at room temperature, and (b) polyclonal anti-alpha synuclein (α-synuclein) antibody produced in rabbit at dilution of 1/200 in PBS containing 1% FCS, 0.1% saponin, for 2 h at room temperature.\nAutomatic computer analysis. For each condition, 20 pictures (representing the whole well area) were automatically taken using ImageXpress® (Molecular Devices) at 10× magnification (20 pictures, for TH and α-synuclein into TH neurons) using the same acquisition parameters. From images, analyses was directly and automatically performed by MetaXpress® (Molecular Devices).", "note": "Where a name gives a salt, the structure may show the parent alone."}
{"compound": "CCCN(C(=O)c1csc(-c2cnn(-c3ccccc3)c2)n1)[C@@H]1CCNC1", "note": "[Compound 171, (R)-2-(1-phenyl-1H-pyrazol-4-yl)-N-propyl-N-(pyrrolidin-3-yl)thiazole-4-carboxamide hydrochloride]", "values": [{"measurement": "decrease in α-syn area per dopaminergic TH positive neuron compared to MPP+ injury alone", "result": "> 18", "unit": "%"}, {"measurement": "increase in the length of the neurite network of dopaminergic TH positive neurons compared to the MPP+ injury alone", "result": "> 31", "unit": "%"}, {"measurement": "increase in the number of dopaminergic TH positive neurons compared to MPP+ injury alone", "result": "> 25", "unit": "%"}]}
